The source of these data is article PMC7026480, “Discovery of Multitarget-Directed Ligands Against Influenza A Virus From Compound Yizhihao Through a Predictive System for Compound-Protein Interactions” (Frontiers in Cellular and Infection Microbiology, 2020).

Read-outs that look alike come from different tables or passages of the source.

The target of experiment [1] is neuraminidase (NA) of A/PR/8/34 (H1N1) (Influenza A virus, UniProt P03468). The experiment is described as follows: biochemical.
Sequence of neuraminidase (NA) of A/PR/8/34 (H1N1) (P03468 whole entry, looked up): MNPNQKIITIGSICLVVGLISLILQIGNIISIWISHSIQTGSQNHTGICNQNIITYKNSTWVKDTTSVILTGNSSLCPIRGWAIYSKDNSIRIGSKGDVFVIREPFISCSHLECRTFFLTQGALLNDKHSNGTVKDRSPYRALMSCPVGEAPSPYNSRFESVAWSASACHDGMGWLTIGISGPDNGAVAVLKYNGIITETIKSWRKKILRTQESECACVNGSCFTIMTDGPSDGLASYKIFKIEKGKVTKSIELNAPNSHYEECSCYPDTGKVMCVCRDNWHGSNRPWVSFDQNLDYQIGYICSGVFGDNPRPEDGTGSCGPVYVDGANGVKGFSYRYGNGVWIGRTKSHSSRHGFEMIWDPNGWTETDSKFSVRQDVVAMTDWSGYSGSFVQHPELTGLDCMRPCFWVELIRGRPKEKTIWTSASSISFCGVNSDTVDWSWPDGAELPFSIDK
In the next experiment the test system is TNF-α. The class given is cell-based, human. For TNF-α expression in cell culture supernatant in comparison with the model group: test concentration or dose not given here.
The test system of experiment [2] is A/Puerto Rico/8/34 (wild-type H1N1). The experiment can be described thus: microbe, parasite or virus in culture. The experiment is classed as cell-based. To be noted: Influenza A virus.
Experiment [3] deals with A/Minfang/151/2000 (wild-type H3N2). The experiment can be described thus: microbe, parasite or virus in culture. The experiment is classed as cell-based. To be noted: Influenza A virus, H3N2, MDCK.
Where [4] appears, read: IC50, NA inhibition test, A/PR/8/34 (H1N1).
Setting [5] is: H1N1 / PR/8, MDCK, read-out: IC50, CPE reduction, A/PR/8/34 (H1N1), Drug administration after virus inoculation.
The mark [6] stands for this setting: H1N1 / PR/8, MDCK, read-out: IC50, CPE reduction, A/PR/8/34 (H1N1), Pre-incubation of virus and drug.
Where [7] appears, read: H1N1 / PR/8, MDCK, read-out: IC50, CPE reduction, A/PR/8/34 (H1N1), Simultaneous action of virus and drug.
Where [8] appears, read: H1N1 / PR/8, MDCK, read-out: IC50, CPE reduction, A/PR/8/34 (H1N1), Virus inoculation after drug administration.
Setting [9] is: read-out: IC50, CPE reduction, A/Minfang/151/2000 (H3N2), Drug administration after virus inoculation.
[10] abbreviates: read-out: IC50, CPE reduction, A/Minfang/151/2000 (H3N2), Pre-incubation of virus and drug.
[11] abbreviates: read-out: IC50, CPE reduction, A/Minfang/151/2000 (H3N2), Simultaneous action of virus and drug.
[12] abbreviates: read-out: IC50, CPE reduction, A/Minfang/151/2000 (H3N2), Virus inoculation after drug administration.
Where [13] appears, read: H1N1, MDCK, read-out: IC50, CPE reduction, H1N1 wild-type, in the four modes of action tested.
[14] abbreviates: read-out: IC50, CPE reduction, H3N2 wild-type, in the four modes of action tested.

`O=c1cc(-c2ccc(O)c(O)c2)oc2c([C@@H]3O[C@H](CO)[C@@H](O)[C@H](O)[C@H]3O)c(O)cc(O)c12` [Orientin]: in experiment [1] (setting [4]), the IC50 was 53.7 ± 9.98 µM. Besides, the “TNF-α expression in cell culture supernatant in comparison with the model group” value (“TNF-α expression” below) with TNF-α was “significantly less TNF-α”.

As for `C=C(C(=O)O)[C@H]1CC[C@H](C)[C@@H]2CC(=O)C(C)=C2C1` (stereo in doubt) [Rupestonic acid], in experiment [1] (read-out: IC50, NA inhibition test, A/PR/8/34 (H1N1)), the IC50 was more than 100 µM. Also, the “TNF-α expression” value in the experiment on TNF-α is recorded as “significantly less TNF-α”.

Consider `O=C(/C=C/c1ccc(O)cc1)c1ccc(O)cc1O` [isoliquiritigenin], for which, in the experiment on TNF-α, the “TNF-α expression” value is listed as “significantly less TNF-α” and the “effect on TNF-α compared with positive drugs” value is recorded as “greater effect on TNF-α than positive drugs”.

As for `O=C1c2ccccc2-n2c1nc1ccccc1c2=O` [Tryptanthrin], the “TNF-α expression” value in the experiment with TNF-α is “except tryptanthrin, were associated with significantly less TNF-α”. The IC50 in experiment [2] (setting [5]) is more than 100 µM; in experiment [2] (setting [6]) it was 72 ± 23.6 µM; in experiment [2] (setting [7]), more than 100 µM; in experiment [2] (setting [8]), more than 100 µM; in experiment [3] (setting [9]), more than 100 µM; in experiment [3] (setting [10]), 17.7 ± 1.74 µM. The values for the IC50 in experiment [3] (setting [11]) and in experiment [3] (setting [12]) were 31.8 ± 11.6 µM and 76.3 ± 3.4 µM, respectively.

`O=C(/C=C/c1ccc(O)c(O)c1)O[C@@H]1C[C@](O)(C(=O)O)C[C@@H](O)[C@H]1O` [Chlorogenic acid] had an IC50 in experiment [1] (setting [4]) of 64.6 ± 6.97 µM. Moreover, the “TNF-α expression” value in the experiment on TNF-α is reported as “significantly less TNF-α”.

Regarding `O=c1c(O)c(-c2ccc(O)c(O)c2)oc2cc(O)cc(O)c12` [Quercetin], the IC50 in experiment [2] (setting [5]) is more than 100 µM; in experiment [2] (setting [6]), 8.59 ± 1.34 µM; in experiment [2] (setting [7]) it was 5.41 ± 0.14 µM; in experiment [2] (setting [8]), more than 100 µM; in experiment [3] (setting [9]) it was more than 100 µM; in experiment [3] (setting [10]), 9.99 ± 2.84 µM. For the same compound, the figures for the IC50 in experiment [3] (setting [11]) and in experiment [3] (setting [12]) were 18.3 ± 3.52 µM and more than 100 µM, respectively.

As for `NC(=O)c1ncn([C@@H]2O[C@H](CO)[C@@H](O)[C@H]2O)n1` [Ribavirin, ribavirin, reference compound], the IC50 in experiment [2] (setting [13]) was less than 100 µM; in experiment [2] (setting [5]), 16.1 ± 1.47 µM; in experiment [2] (setting [6]), 10.4 ± 2.19 µM; in experiment [2] (setting [7]), 16.4 ± 2.95 µM; in experiment [2] (setting [8]), 47.5 ± 7.94 µM; in experiment [3] (setting [9]), 22.5 ± 6.16 µM. Moreover, the IC50 in experiment [3] (setting [10]) is 9.18 ± 0.99 µM; in experiment [3] (setting [11]), 21.7 ± 0.97 µM; in experiment [3] (setting [12]), 62.5 ± 16.2 µM; in experiment [3] (setting [14]), less than 100 µM.

`CCOC(=O)C1=C[C@@H](OC(CC)CC)[C@H](NC(C)=O)[C@@H](N)C1` [Oseltamivir, oseltamivir phosphate, reference compound]: the IC50 is less than 100 µM in experiment [2] (setting [13]); 83.4 ± 15.6 µM in experiment [2] (setting [5]); 74.9 ± 20.7 µM in experiment [2] (setting [6]); 4.45 ± 0.24 µM in experiment [2] (setting [7]); 11.4 ± 7.44 µM in experiment [2] (setting [8]); 77.9 ± 22.1 µM in experiment [3] (setting [9]). The IC50 is 6.25 ± 2.6 µM in experiment [3] (setting [10]), 8.47 ± 1.73 µM in experiment [3] (setting [11]), 54.5 ± 14.2 µM in experiment [3] (setting [12]) and less than 100 µM in experiment [3] (setting [14]).

Turning to `COc1ccc(-c2cc(=O)c3c(O)cc(O[C@@H]4O[C@H](CO[C@@H]5O[C@@H](C)[C@H](O)[C@@H](O)[C@H]5O)[C@@H](O)[C@H](O)[C@H]4O)cc3o2)cc1` [linarin], in the experiment with TNF-α, the “TNF-α expression” value is given as “significantly less TNF-α”.

Turning to `COc1ccc(-c2cc(=O)c3c(OC)c(OC)c(OC)cc3o2)cc1OC` [sinensetin], the “TNF-α expression” value in the experiment with TNF-α was “significantly less TNF-α”.

`Cc1cc(O)c2c(c1)C(=O)c1cc(O)cc(O)c1C2=O` [Emodin]: the IC50 is more than 100 µM in experiment [2] (setting [5]); 55.9 ± 9.8 µM in experiment [2] (setting [6]); 6.53 ± 0.29 µM in experiment [2] (setting [7]); more than 100 µM in experiment [2] (setting [8]); more than 100 µM in experiment [3] (setting [9]); 18.2 ± 1.02 µM in experiment [3] (setting [10]). For the same compound, the IC50 in experiment [3] (setting [11]) was 55.9 ± 6 µM; in experiment [3] (setting [12]), more than 100 µM.

Consider `C=CCC(=NOS(=O)(=O)O)S[C@@H]1O[C@H](CO)[C@@H](O)[C@H](O)[C@H]1O` (stereo in doubt) [sinigrin], for which the “TNF-α expression” value in the experiment on TNF-α is reported as “significantly less TNF-α”.

As to `O=c1cc(-c2ccc(O)cc2)oc2cc(O)cc(O)c12` [Apigenin], the IC50 in experiment [2] (setting [5]) is more than 100 µM; in experiment [2] (setting [6]), 16.7 ± 1.77 µM; in experiment [2] (setting [7]) it was 9.06 ± 0.41 µM; in experiment [2] (setting [8]), more than 100 µM; in experiment [3] (setting [9]), more than 100 µM; in experiment [3] (setting [10]), 9.28 ± 2.03 µM. In addition, the IC50 in experiment [3] (setting [11]) is 15.8 ± 1 µM; in experiment [3] (setting [12]), more than 100 µM.

In the case of `O=C1Nc2ccccc2/C1=C1/Nc2ccccc2C1=O` [Indirubin], the IC50 in experiment [2] (setting [5]), in experiment [2] (setting [6]), in experiment [2] (setting [7]), in experiment [2] (setting [8]), in experiment [3] (setting [9]) and in experiment [3] (setting [10]) was more than 100 µM in each case. The values for the IC50 in experiment [3] (setting [11]) and in experiment [3] (setting [12]) were more than 100 µM and 52.6 ± 27.4 µM, respectively.

In the case of `COc1ccc(-c2cc(=O)c3c(O)cc(O)cc3o2)cc1` [Acacetin], the IC50 was 62 ± 5.91 µM in experiment [2] (setting [5]); 77.4 ± 25.7 µM in experiment [2] (setting [6]); more than 100 µM in experiment [2] (setting [7]); more than 100 µM in experiment [2] (setting [8]); more than 100 µM in experiment [3] (setting [9]); 12.5 ± 5.46 µM in experiment [3] (setting [10]). Besides, the IC50 in experiment [3] (setting [11]) amounted to 20.5 ± 0.86 µM; in experiment [3] (setting [12]), 72.5 ± 11.7 µM.

In the case of cedar acid, the “TNF-α expression” value in the experiment with TNF-α is “significantly less TNF-α”.

Regarding `O=c1cc(-c2ccc(O)c(O)c2)oc2cc(O)cc(O)c12` [Luteolin], the “TNF-α expression” value in the experiment on TNF-α is reported as “significantly less TNF-α”. Besides, the “effect on TNF-α compared with positive drugs” value in the experiment on TNF-α was “greater effect on TNF-α than positive drugs”. In addition, the IC50 was more than 100 µM in experiment [2] (setting [5]); 4.53 ± 0.92 µM in experiment [2] (setting [6]); 7.08 ± 0.3 µM in experiment [2] (setting [7]); more than 100 µM in experiment [2] (setting [8]); more than 100 µM in experiment [3] (setting [9]); 44.7 ± 20 µM in experiment [3] (setting [10]). Further, the IC50 in experiment [3] (setting [11]) and in experiment [3] (setting [12]) was more than 100 µM in each case.

`C=C[C@@H]1CNC(=S)O1` [Epigoitrin] gave an IC50 in experiment [1] of more than 100 µM. Further, the “TNF-α expression” value with TNF-α is “significantly less TNF-α”.
